The assay deals with recombinant human CYP17 enzyme (Homo sapiens (Human), UniProt P05093). The assay is described as follows: Cytochrome P450, 17-20 lyase (CYP17-lyase) assay, tritiated acetic acid release from 17-α-hydroxy pregnenolone [21-3H]. Type of assay: biochemical. The source says: Assay method was adopted from a published protocol with some modifications to suit our requirements (Dmitry N Grigoryev et al, Analytical Biochemistry, (1999) 267, 319-330). […] Chloroform extraction removes the radioactive steroids and acetic acid is taken into aqueous layer. The tritiated acetic acid released in the assay thus extracted is quantified to determine the enzyme activity. […] The purified cell membrane preparations were used as the source for Human CYP17 enzyme. […] O, Nijar, et al., J Med Chem, (1998) 41, 902-912). […] Km for this substrate was determined by monitoring the tritiated acetic acid release as a function of substrate concentration. […] For the Km determination, the data was fit to a hyperbolic equation (Graphpad Prism® software IV). […] (Dmitry N. Grigoryev et al, Analytical Biochemistry (1999) 267, 319-330) […] NADPH is used at a final concentration of 4.2 mM. Total reaction volume was made up to 50 μL with 50 mM Phosphate buffer pH 7.5. The reaction mixture was incubated at room temperature for 90 minutes with gentle shaking. The reaction was stopped by the addition of 100 μL of buffer. 500 μL of 5% freshly prepared activated charcoal was added to the solution and mixed well by vortexing. The samples were centrifuged at 17568×g for 5 minutes. (14000 rpm). The supernatant was carefully transferred to fresh tube and 1.3 mL of scintillation fluid was added, mixed by vortexing. The radioactivity was measured in a 1450 MicroBeta TriLux™ scintillation counter from Wallac-Perkin Elmer®, USA. The measurements were carried out in 2.0 mL Eppendorforf™ tubes. […] The amount of tritiated acetic acid released is proportional to the lyase activity. Percent lyase activity in presence of inhibitor was calculated using the formula given below. […] Enzyme reaction in presence of inhibitor. • Positive control: […] For IC50 determination, the % inhibition was plotted as a function of inhibitor concentration. The data was fitted to sigmoidal equation using Graphpad Prism® software IV to generate IC50 values.

[1] abbreviates: human CYP17, substrate 0.25 μM, read-out: Lyase IC 50 nM Human/Rat (Human).
The mark [2] stands for this setting: human CYP17, substrate 0.25 μM, read-out: Lyase IC 50 Human/Rat (Human).

Structures are written as SMILES. Counter-ions that a name gives are not always drawn. Like-named read-outs stand apart in the source and are kept apart here. Bounds are passed on as bounds.

recombinant human CYP17 enzyme, sequence (P05093 whole entry): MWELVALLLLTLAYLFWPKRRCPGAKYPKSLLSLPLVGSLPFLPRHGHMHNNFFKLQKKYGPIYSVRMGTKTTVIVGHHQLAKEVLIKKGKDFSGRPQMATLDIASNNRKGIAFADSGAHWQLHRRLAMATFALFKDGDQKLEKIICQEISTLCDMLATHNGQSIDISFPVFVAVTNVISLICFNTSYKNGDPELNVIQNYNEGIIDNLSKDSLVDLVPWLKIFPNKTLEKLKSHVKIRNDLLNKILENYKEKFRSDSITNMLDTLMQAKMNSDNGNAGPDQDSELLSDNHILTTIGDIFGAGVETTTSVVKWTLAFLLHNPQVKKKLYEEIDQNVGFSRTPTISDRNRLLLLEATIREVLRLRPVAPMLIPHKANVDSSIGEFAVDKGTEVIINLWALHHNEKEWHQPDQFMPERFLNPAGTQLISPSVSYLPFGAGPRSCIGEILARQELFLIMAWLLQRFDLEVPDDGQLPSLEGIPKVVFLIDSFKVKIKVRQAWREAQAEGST

`Cc1ccncc1N1CCN(c2cn(C)c3ccc(Cl)cc23)C1=O` [Example 137A, 1-(5-Chloro-1-methyl-1H-indol-3-yl)-3-(4-methyl-pyridin-3-yl)-imidazolidin-2-one]: the IC50 under setting [1] amounted to 1550 nM.
Still for that read-out and setting: as for `Cc1ccncc1N1CCN(c2ccc(C(F)(F)F)s2)C1=O` [Example 155A, 1-(4-Methylpyridin-3-yl)-3-(5-(trifluoromethyl)thiophen-2-yl)-imidazolidin-2-one], the figure is 2.7 nM.
As to `O=C1N(c2ccc3ncsc3c2)CCN1c1cnccc1CN1CCOCC1` [Example 177A, 1-benzothiazol-6-yl-3-(4-morpholin-4-ylmethyl-pyridin-3-yl)-imidazolidin-2-one], the IC50 under setting [1] was 32 nM.
In the case of `Cc1ccncc1-n1ccn(-c2ccc(F)c(C(F)F)c2)c1=O` [Example 91B, 1-(3-Difluoromethyl-4-fluoro-phenyl)-3-(4-methyl-pyridin-3-yl)-1,3-dihydro-imidazol-2-one], under setting [1], the IC50 worked out at 22 nM.
For `Cc1ccncc1N1CCN(c2ccc3c(c2)ncn3C)C1=O` [Example 116A, 1-(1-Methyl-1H-benzoimidazol-5-yl)-3-(4-methyl-pyridin-3-yl)-trifluoroacetic Acid], under setting [2], the IC50 was more than 10000 nM.
Still for that read-out and setting: as for `O=C1N(c2ccc3ncsc3c2)CCN1c1ccccn1` [Example 191A, 1-Benzothiazol-6-yl-3-pyridin-2-yl-imidazolidin-2-one], the figure is more than 10000 nM.
For `Cc1ccncc1N1CCN(c2cnc3[nH]cnc3c2)C1=O` [Example 122A, 1-(3H-Imidazo[4,5-b]pyridin-6-yl)-3-(4-methyl-pyridin-3-yl)-imidazolidin-2-one Trifluoroacetic Acid], under setting [1], the IC50 worked out at 383 nM.
Regarding `COc1nccc2sc(N3CCN(c4cnccc4C)C3=O)cc12` [Example 97A, 1-(4-Methoxy-thieno[3,2-c]pyridin-2-yl)-3-(4-methyl-pyridin-3-yl)-imidazolidin-2-one], the IC50 under setting [1] is 356 nM.
For the compound `Cc1ccncc1N1CCN(c2ccnc(N)c2)C1=O` [Example 76A], under setting [1], the IC50 turned out to be 192 nM.
On to `O=C1N(c2ccc3ncsc3c2)CCN1c1cncc2nccn12` [Example 186A, 1-Benzothiazol-6-yl-3-imidazo[1,2-a]pyrazin-5-yl-imidazolidin-2-one], for which the IC50 under setting [2] was more than 10000 nM.
Take `COc1nccc2scc(N3CCN(c4cnccc4C)C3=O)c12` [Example 110A, 1-(4-Methoxy-thieno[3,2-c]pyridin-3-yl)-3-(4-methyl-pyridin-3-yl)-imidazolidin-2-one]: under setting [2], the IC50 was more than 10000 nM.
With `Cc1cc(N2CCN(c3cnccc3C)C2=O)cs1` [Example 92B, 1-(4-Methyl-pyridin-3-yl)-3-(5-methyl-thiophen-3-yl)-imidazolidin-2-one], the IC50 under setting [1] was 12 nM.
Turning to `Cc1ccncc1N1CCN(c2ccc3c(c2)OCCO3)C1=O` [Example 49A, 1-(2,3-Dihydro-benzo[1,4]dioxin-6-yl)-3-(4-methyl-pyridin-3-yl)-imidazolidin-2-one], under setting [1], the IC50 came to 30 nM.
As to `COc1ccc(N2CCN(c3cnccc3C)C2=O)cc1F` [Example 53A, 1-(3-Fluoro-4-methoxy-phenyl)-3-(4-methyl-pyridin-3-yl)-imidazolidin-2-one], under setting [1], the IC50 is 136 nM.
In the case of `Cc1ccc(N2CCN(c3ccc4ncsc4c3)C2=O)cn1` [Example 127A, 1-Benzothiazol-6-yl-3-(6-methyl-pyridin-3-yl)-imidazolidin-2-one], under setting [2], the IC50 is more than 10000 nM.
As for `Cc1c(N2CCN(c3ccc4ncsc4c3)C2=O)cncc1C(F)(F)F` [Example 153A, 1-(benzo[d]thiazol-6-yl)-3-(4-methyl-5-(trifluoromethyl)pyridin-3-yl)imidazolidin-2-one, Trifluoroacetic Acid Salt], the IC50 (read-out: Lyase IC 50 nM Human/Rat (Human)) was determined as 280 nM.
Take `Cc1ccncc1N1CCN(c2ccc3cn[nH]c3c2)C1=O` [Example 121A, 1-(1H-Indazol-6-yl)-3-(4-methyl-pyridin-3-yl)-imidazolidin-2-one]: the IC50 under setting [1] was found to be 2.5 nM.
Regarding `CCc1ccncc1N1CCN(c2ccc3ncsc3c2)C1=O` [Example 159A, 1-(benzo[d]thiazol-6-yl)-3-(4-ethylpyridin-3-yl)imidazolidin-2-one], under setting [1], the IC50 stood at 3.4 nM.
Regarding `Cc1ccncc1N1CC(C)(C)N(c2ccc3ncsc3c2)C1=O` [Example 163A, 3-Benzothiazol-6-yl-4,4-dimethyl-1-(4-methyl-pyridin-3-yl)-imidazolidin-2-one], the IC50 under setting [2] is more than 10000 nM.
With `Cc1ccncc1N1CCN(c2ccc3c(C)noc3c2)C1=O` [Example 111A, 1-(3-Methyl-benzo[d]isoxazol-6-yl)-3-(4-methyl-pyridin-3-yl)-imidazolidin-2-one], the IC50 under setting [1] is 106 nM.
As for `Cc1ccncc1N1CCN(c2ccc3c(N)nn(C)c3c2)C1=O` [Example 143A, 1-(3-Amino-1-methyl-1H-indazol-6-yl)-3-(4-methyl-pyridin-3-yl)-imidazolidin-2-one], under setting [1], the IC50 was found to be 116 nM.
`Cc1ccncc1N1CCN(c2cnc3ccccn23)C1=O` [Example 119A, 1-Imidazo[1,2-a]pyridin-3-yl-3-(4-methyl-pyridin-3-yl)-imidazolidin-2-One]: the IC50 under setting [1] amounted to 3200 nM.
On the same count and under the same terms, the figure for `Cc1ccncc1N1CCN(c2ccnc(Cl)c2)C1=O` [Example 58A, 1-(2-Chloro-pyridin-4-yl)-3-(4-methyl-pyridin-3-yl)-imidazolidin-2-one] is 27 nM.
Regarding `Cc1ccncc1N1CCN(c2ccc3cc[nH]c3c2)C1=O` [Example 144A, 1-(1H-Indol-6-yl)-3-(4-methyl-pyridin-3-yl)-imidazolidin-2-one], the IC50 under setting [1] amounted to 174 nM.
In the case of `Cc1ccncc1N1CCN(c2ccc(C#N)c(Cl)c2)C1=O` [Example 112A, 2-Chloro-4-[3-(4-methyl-pyridin-3-yl)-2-oxo-imidazolidin-1-yl]-benzonitrile], the IC50 under setting [1] came out at 28 nM.
For the compound `Cc1ccncc1-n1ccn(-c2ccc3ncsc3c2)c1=O` [Example 142A, 1-Benzothiazol-6-yl-3-(4-methyl-pyridin-3-yl)-1,3-dihydro-imidazol-2-one], the IC50 under setting [1] was found to be 21 nM.
In the case of `Cc1ccncc1N1CCN(c2ccnc(N3CCCC3)c2)C1=O` [Example 85A, 1-(4-Methyl-pyridin-3-yl)-3-(2-pyrrolidin-1-yl-pyridin-4-yl)-imidazolidin-2-one], the IC50 under setting [1] turned out to be 1260 nM.
For the compound `Cc1ccncc1N1CCN(c2ccc(Cl)c(F)c2)C1=O` [Example 54A, 1-(4-Chloro-3-fluoro-phenyl)-3-(4-methyl-pyridin-3-yl)-imidazolidin-2-one], the IC50 under setting [1] amounted to 15 nM.
Take `Cc1ccncc1N1CCN(c2ccc3c(c2)CCO3)C1=O` [Example 51A, 1-(2,3-Dihydro-benzofuran-5-yl)-3-(4-methyl-pyridin-3-yl)-imidazolidin-2-one]: under setting [1], the IC50 turned out to be 14 nM.
On the same count and under the same terms, the figure for `Cc1ccncc1N1CCN(c2cnsc2)C1=O` [Example 190A, 1-Isothiazol-4-yl-3-(4-methyl-pyridin-3-yl)-imidazolidin-2-one] is 89 nM; for `Cc1ccncc1N1CCN(c2ccc3c(c2)C(C)(C)C(=O)N3CO)C1=O` [Example 147A, 1-Hydroxymethyl-3,3-dimethyl-5-[3-(4-methyl-pyridin-3-yl)-2-oxo-imidazolidin-1-yl]-1,3-dihydro-indol-2-one] it is 346 nM; for `Cc1ccncc1N1CCN(c2ccc3c(=O)[nH][nH]c3c2)C1=O` [Example 135A, 6-[3-(4-Methyl-pyridin-3-yl)-2-oxo-imidazolidin-1-yl]-1,2-dihydro-indazol-3-one] it is 15.9 nM.

The values above are taken from patent publication USRE45173E1, “Inhibitors of CYP 17” (Novartis AG, priority 2009, dated 2014).
